Experiments:
U-2 OS cells = assay: Cell viability assay (methylene blue); format: cell-based, human; settings: 48 h incubation
Procedure: (§1) U-2 OS, U-87 MG, and enriched monocyte cells were grown at 370 C with 5% of CO2 in the
(§2) respective medium as described previously. Cells were seeded (1500 cells/well in 96 wells
(§3) plate) one day before the incubation with indicated probe or inhibitor at various concentrations.
(§4) After 48 h cells were fixed, and viability was measured by quantitative colorimetric assay using
(§5) methylene blue according to the procedure reported by Ben-Bassat et al. The data were
(§6) expressed as a percentage of control; data represent the mean of 2 experiments with triplicates
(§7) for each treatment (± standard deviation).
(§8) Fluorescent imaging of CTSK activity in lung tissue: Freshly resected human lung cancer and
(§9) normal lung tissues or mouse normal lung and primary lung cancer were embedded in OCT,
(§10) frozen in liquid nitrogen, and kept at - 80° C. Tissues were sectioned into 10 μm thick slices
(§11) using a cryostat (Leica). The slides were defrosted and washed with 1X PBS. Then the slides
(§12) were pretreated with DMSO or GD30 (5 µM) in buffer acetate for 1 h at 37° C. Afterward,
(§13) GD32 (0.75uM) or DMSO in buffer acetate were applied to the slides for 4 h at 37° C. Three
(§14) short washes with 1X PBS were done and the slides were left in 1X PBS for overnight
(§15) incubation at 4° C. The next day, slides were mounted with DAPI-Fluoromount-G® before
(§16) visualization by confocal microscopy. Olympus FV10i was used for human samples, whereas
(§17) Zeiss was used for mouse samples.
(§18) Details of the synthesis of the compounds
(§19) Synthesis of Compound (2)

U-87 MG cells = assay: Cell viability assay (methylene blue); format: cell-based, human; settings: 48 h incubation
Procedure: as §1, §2, §3, §4, §5, §6, §7, §8, §9, §10, §11, §12, §13, §14, §15, §16, §17, §18, §19

CTSB = CTSB (Homo sapiens, UniProt P07858); assay: In vitro kinetic evaluation of cathepsin inhibition, fluorescent substrate Z-FR-AMC; format: biochemical; settings: for mode of inhibition: CTSB; for Ki: CTSB 5 nM, pH 6, 37 °C
Procedure: used for TLC. Phosphate Buffer Saline (PBS) was purchased from Biological Industries (pH = […]
7.4) and was used as a buffer system in all experiments if not indicated otherwise. […]
Recombinant human CTSB, CTSK, CTSL, and CTSS were supplied by B. Turk (J. […]
In vitro kinetic evaluation of labeling recombinant cathepsins:
Reactions were monitored for 30 min at 37° C in 96-well black flat-bottom microplates […]
(Greiner, Germany) using Tecan INFINITE M1000 pro plate reader (Tecan, Switzerland), […]
substrates Z-RR-AMC (CTSL) or Z-FR-AMC (CTSS, CTSB and CTSK), and excitation and […]
emission wavelengths of 370 and 460 nm, respectively. Cathepsin concentrations in the assay were 0.4 nM (CTSK) or 5 nM (CTSS, CTSB, and CTSL). The buffer was 100 mM Na2HPO4/NaH2PO4, 50 mM NaCl, 5 mM DTT, 0,1% Peg-6000, pH 6. For irreversible inhibitors, reaction data were fitted to the one-phase association formula in GraphPad Prism 9 software: Y=Y0 + (Plateau-Y0)*(1-exp(-K*X)) where in this case Y0 and Y represent fluorescence signal at times 0 and t, respectively, K represent the observed reaction rate kobs and X the inhibitor concentration. Inactivation rates at each inhibitor concentration were obtained by subtracting the inactivation observed in the control sample: kobs – kctrl. The maximal rate of inactivation (kinact) was obtained as the asymptote from equation Y = kinact*X/(Kiapp + X) where X is inhibitor concentration, Y is the observed inactivation rate for each X, and Kiapp is the apparent inhibition constant. Ki values were calculated from IC50 or from Kiapp using formulas Ki = Kiapp / (1 + Km/S) and IC50 = E0/2 + Kiapp, where Km stands for Michalis-Menten constant, S for substrate concentration and E0 for cathepsin concentration.
The highest inhibitor concentrations in the assay were 50 µM. Measurements were performed in several independent duplicates. Average values are presented with standard deviations. […]
µM) were pretreated with different concentrations of probes (GD32, GD36, GD37, or GD42)

Row | mode of inhibition (CTSB) | Ki (CTSB) [µM] | Compound | cytotoxicity (U-2 OS cells) | cytotoxicity (U-87 MG cells)
1 |  |  | C#CCNC(=O)[C@H](CC(C)C)N[C@@H](c1ccc(-c2ccc(S(=O)(=O)CCNC(=O)OC(C)(C)C)cc2)cc1)C(F)(F)F [GD30] | No toxicity | No toxicity
2 | Reversible | 9.4 | C#CCNC(=O)[C@H](CC(C)C)N[C@@H](c1ccc(-c2ccc(S(=O)(=O)CCNC(=O)CCCCC[N+]3=C(/C=C/C=C/C=C4/N(C)c5ccc(S(=O)(=O)O)cc5C4(C)C)C(C)(C)c4cc(S(=O)(=O)O)ccc43)cc2)cc1)C(F)(F)F [GD32] | No toxicity | No toxicity
3 | Reversible | 5.9 | CC(C)C[C@H](N[C@@H](c1ccc(-c2ccc(S(=O)(=O)CCNC(=O)CCCCC[N+]3=C(/C=C/C=C/C=C4/N(C)c5ccc(S(=O)(=O)O)cc5C4(C)C)C(C)(C)c4cc(S(=O)(=O)O)ccc43)cc2)cc1)C(F)(F)F)C(=O)NC1(C#N)CC1 [GD37] |  | 

From article PMC11481179, “Development and Application of Reversible and Irreversible Covalent Probes for Human and Mouse Cathepsin‐K Activity Detection, Revealing Nuclear Activity” (Advanced Science, 2024)
